In patent EP1013272A1, “Manipulation of the activity of a nitric oxide radical production pathway for the treatment of diseases associated with the presence of oxygen free radicals” (Biomedical Primate Research Centre (BPRC), priority 1998, dated 2000):

Key:
rat spleen cell cultures = test: In vivo exposure to HgCl2, then ELISPOT of Con A-stimulated spleen cell cultures; conditions: for reduction in the ratio of IFN-γ pc/IL-4 pc: day 3 after first HgCl2 injection
Protocol: (§1) Female BN and Lewis rats at 8 to 12 weeks of age were used in all experiments. Animals were obtained from Harlan CPB (Zeist, The Netherlands) and housed in the animal care facility of our institute and maintained on standard laboratory chow and water ad libitum. For some experiments, rats were injected twice with 1 mg HgCl2/kg body weight by the intraperitoneal route with an interval of 48 h. Four repeated i.p. injections with this dose of HgCl2 at 48 h intervals induce a TH2-biased autoimmune syndrome in BN but not Lewis rats that becomes clinically evident (massive proteinuria) approximately 13 days after the first injection with HgCl2 (16).
The aseptically removed spleen was gently crushed with the blunt end of a 5-ml syringe plunger and passaged through a fine mesh nylon screen. Erythrocytes were hemolysed by adding cold sterile water for 20 sec. to cell pellets followed by the addition of half the volume of 2.7% saline. The number of cells was determined by use of Türk's solution and cell viability by means of trypan blue exclusion. Cell suspensions in which the viability was less than 85% were excluded from the studies. Splenocytes were washed twice with CM5, adjusted to 4 x 10^6 cells/ml, transferred to a 24-well culture plate (1.0 ml/well) and stimulated with Con A (5 µg/ml) in the presence or absence of various supplements (as indicated in the text) for 40 h at 37°C in a humidified atmosphere containing 5% CO2. Thereafter, non-adherent cells were collected and subjected to ELISPOT analyses as described below.
The ELISPOT assay for detecting single cytokine secreting cells has been detailed previously (17). Briefly, the wells of PVC microplates were coated with monoclonal antibodies specific for rat IFN-γ or rat IL-4. After washing and postcoating, 100 µl suspensions of Con A-activated splenocytes were pipetted into the wells. The cells were allowed the produce cytokines for either 4 h (IFN-γ pc) or 16 h (IL-4 pc). Thereafter, cells were lysed for 10 minutes with ice-cold distilled water. Subsequently, the wells were thoroughly washed with PBS containing 0.05% Tween-20. Spots were detected by the sequential incubation of biotinylated rabbit anti-cytokine antibodies and goat anti-biotin antibodies conjugated to alkaline phosphatase (AP). The AP substrate 5-bromo-4-chloro-3-indolyl phosphate was used to produce blue zones ('spots') that visualised the positions of the individual spot-forming cells (SFC). SFC were enumerated by image analysis using a stereo microscope coupled to a colour video camera and Micro Image software from Olympus Optical Co. The frequency of spontaneously occurring SFC was always less than 1% of the mitogen-induced frequency.
Spleens were isolated from rats at 24 h after the second intraperitoneal injection with saline or HgCl2 (1 mg/kg b.w.). Spleen cells were stimulated with Con A (5 µg/ml) in the presence of 2 mM GSH. The experiments were performed at three independent occasions with similar results. At each occasion the ELISPOT analyses were performed in quadruplicate. One representative experiment is presented. Both reduction of IFN-γ pc and enhancement of IL-4 pc (BN splenocytes only) as a result of in vivo exposure to HgCl2 reached in all analyses statistical significance (p < 0.01).

splenocytes = test: Superoxide anion release by splenocytes after in vivo HgCl2; parameters: species or system rat
Protocol: as §1
The pMØ monolayers were incubated for 20 h at 37°C in CM10 and subsequently washed (twice) with Hanks' balanced salt solution (HBSS) without phenol red. Thereafter, the cells were treated with PMA and assayed for ^·O2^- production by measuring the rate of SOD-inhibitable ferricytochrome C reduction (20, 21). To that purpose the macrophage monolayer was incubated for 1 h at 37°C with an 1.0 ml reaction mixture containing 100 µM ferricytochrome C in HBSS with or without PMA (100 ng/ml). […] Each test was run in duplicate and the absorption increase at 550 nm was measured using a Beckmann DU-5 spectrophotometer. ^·O2^- release by splenocytes was determined after Con A activation of 4 x 10^6 cells for 20 h. […]

[1] = BN, HgCl2 in vivo, no culture supplement, Con A + 2 mM GSH (Table 4)
[2] = BN, HgCl2 in vivo, no culture supplement, Con A + 2 mM GSH (Table 6)
[3] = BN, HgCl2 1 mg/kg b.w. i.p. twice, spleens 24 h after second injection, Con A 5 µg/ml + 2 mM GSH
[4] = Lewis, HgCl2 in vivo, no culture supplement, Con A + 2 mM GSH (Table 4)
[5] = Lewis, HgCl2 in vivo, no culture supplement, Con A + 2 mM GSH (Table 6)
[6] = Lewis, HgCl2 1 mg/kg b.w. i.p. twice, spleens 24 h after second injection, Con A 5 µg/ml + 2 mM GSH

Q: Which results are given for `[Cl][Hg][Cl]` [HgCl2, mercuric chloride]?
A: reduction in the ratio of IFN-γ pc/IL-4 pc (rat spleen cell cultures; BN splenocyte cultures): ~6 fold; IFN-γ pc per 1x10^4 MNC (rat spleen cell cultures; [1]): 30 ± 8 per 1 x 10^4 MNC; IL-4 pc per 2x10^5 MNC (rat spleen cell cultures; [1]): 88 ± 14 per 2 x 10^5 MNC; ratio IFN-γ pc/IL-4 pc (rat spleen cell cultures; [1]): 6.8; IFN-γ pc per 1x10^4 MNC (rat spleen cell cultures; [2]): 35 ± 8 per 1x10^4 MNC; IL-4 pc per 2x10^5 MNC (rat spleen cell cultures; [2]): 87 ± 14 per 2x10^5 MNC; ratio pc IFN-γ/IL-4 (rat spleen cell cultures; [2]): 8; IFN-γ pc per 1x10^4 MNC (rat spleen cell cultures; [3]): 34 ± 8 per 1 x 10^4 MNC; IL-4 pc per 2x10^5 MNC (rat spleen cell cultures; [3]): 101 ± 12 per 2 x 10^5 MNC; ratio IFN-γ pc/IL-4 pc (rat spleen cell cultures; [3]): 6.7; reduction in the ratio of IFN-γ pc/IL-4 pc (rat spleen cell cultures; Lewis splenocyte cultures): ~2 fold; IFN-γ pc per 1x10^4 MNC (rat spleen cell cultures; [4]): 104 ± 1 per 1 x 10^4 MNC; IL-4 pc per 2x10^5 MNC (rat spleen cell cultures; [4]): 11 ± 3 per 2 x 10^5 MNC; ratio IFN-γ pc/IL-4 pc (rat spleen cell cultures; [4]): 189; IFN-γ pc per 1x10^4 MNC (rat spleen cell cultures; [5]): 104 ± 11 per 1x10^4 MNC; IL-4 pc per 2x10^5 MNC (rat spleen cell cultures; [5]): 13 ± 3 per 2x10^5 MNC; ratio pc IFN-γ/IL-4 (rat spleen cell cultures; [5]): 160; IFN-γ pc per 1x10^4 MNC (rat spleen cell cultures; [6]): 103 ± 9 per 1 x 10^4 MNC; IL-4 pc per 2x10^5 MNC (rat spleen cell cultures; [6]): 12 ± 7 per 2 x 10^5 MNC; ratio IFN-γ pc/IL-4 pc (rat spleen cell cultures; [6]): 172; ^·O2^- levels (splenocytes): below the detection limit
